Test results from ChEMBL document CHEMBL5385926, “Production of Kinanthraquinone D with Antimalarial Activity by Heterologous Gene Expression and Biotransformation in Streptomyces lividans TK23” (J Nat Prod, 2024).
Several values for one entry are separate records, joined by “and”; a condition that tells them apart may be missing. Identical values can stand only once.

Key:
[1] = Cytotoxicity against human HL-60 cells; assay type: toxicity, cell-based
[2] = Cytotoxicity against human HeLa cells; assay type: toxicity, cell-based
Plasmodium falciparum = assay: Antimalarial activity against Plasmodium falciparum 3D7; assay type: functional, organism-based
Staphylococcus aureus = assay: Antimicrobial activity against Staphylococcus aureus 209; assay type: functional, organism-based

COc1ccc2c(c1OC)C(=O)c1ccc(/C=C(/C)CC(=O)NCC(=O)O)c(O)c1C2=O
IC50 [1]: > 30 µM and > 13.2 µg/mL | IC50 [2]: > 30 µM and > 13.2 µg/mL | IC50 (Plasmodium falciparum): > 30 µM and > 13.2 µg/mL | IC50 (Staphylococcus aureus): > 30 µM and > 13.2 µg/mL

COc1ccc2c(c1OC)C(=O)c1ccc(/C=C(/C)CC(=O)O)c(O)c1C2=O
IC50 [1]: > 30 µM and > 11.5 µg/mL | IC50 [2]: > 30 µM and > 11.5 µg/mL | IC50 (Plasmodium falciparum): 15 µM and 5.7 µg/mL | IC50 (Staphylococcus aureus): 18 µM and 6.9 µg/mL

COc1ccc2c(c1OC)C(=O)c1c(O)cc(/C=C(/C)CC(N)=O)c(O)c1C2=O
IC50 [1]: > 30 µM and > 11.9 µg/mL | IC50 [2]: > 30 µM and > 11.9 µg/mL | IC50 (Plasmodium falciparum): 910 nM and 0.4 µg/mL | IC50 (Staphylococcus aureus): > 30 µM and > 11.9 µg/mL

COc1ccc2c(c1OC)C(=O)c1ccc(/C=C(/C)CC(N)=O)c(O)c1C2=O
IC50 [1]: > 30 µM and > 11.4 µg/mL | IC50 [2]: > 30 µM and > 11.4 µg/mL | IC50 (Plasmodium falciparum): 1.21 µM and 0.5 µg/mL | IC50 (Staphylococcus aureus): > 30 µM and > 11.4 µg/mL
